# From US9549932B2, “2-(morpholin-4-yl)-1,7-naphthyridines” (BAYER PHARMA AKTIENGESELLSCHAFT, priority 2014, dated 2017)
# Target: full-length human ATR protein (Homo sapiens (Human), UniProt Q13535)
# Assay: Binding assay ATR (TR-FRET tracer displacement)
# Conditions: read-out: ATR binding (tracer A) IC50
# Outline: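 Full-length human GST-ATR co-purified with ATRIP, pre-complexed 30 min at 22 °C with anti-GST-Tb antibody, then pre-bound with compound 10 min. Tracer A or B added (2 µl of 100 nM solution), 30 min at 22 °C.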
# full-length human ATR protein, sequence (Q13535 other isoform, or with tags, fused parts or gaps): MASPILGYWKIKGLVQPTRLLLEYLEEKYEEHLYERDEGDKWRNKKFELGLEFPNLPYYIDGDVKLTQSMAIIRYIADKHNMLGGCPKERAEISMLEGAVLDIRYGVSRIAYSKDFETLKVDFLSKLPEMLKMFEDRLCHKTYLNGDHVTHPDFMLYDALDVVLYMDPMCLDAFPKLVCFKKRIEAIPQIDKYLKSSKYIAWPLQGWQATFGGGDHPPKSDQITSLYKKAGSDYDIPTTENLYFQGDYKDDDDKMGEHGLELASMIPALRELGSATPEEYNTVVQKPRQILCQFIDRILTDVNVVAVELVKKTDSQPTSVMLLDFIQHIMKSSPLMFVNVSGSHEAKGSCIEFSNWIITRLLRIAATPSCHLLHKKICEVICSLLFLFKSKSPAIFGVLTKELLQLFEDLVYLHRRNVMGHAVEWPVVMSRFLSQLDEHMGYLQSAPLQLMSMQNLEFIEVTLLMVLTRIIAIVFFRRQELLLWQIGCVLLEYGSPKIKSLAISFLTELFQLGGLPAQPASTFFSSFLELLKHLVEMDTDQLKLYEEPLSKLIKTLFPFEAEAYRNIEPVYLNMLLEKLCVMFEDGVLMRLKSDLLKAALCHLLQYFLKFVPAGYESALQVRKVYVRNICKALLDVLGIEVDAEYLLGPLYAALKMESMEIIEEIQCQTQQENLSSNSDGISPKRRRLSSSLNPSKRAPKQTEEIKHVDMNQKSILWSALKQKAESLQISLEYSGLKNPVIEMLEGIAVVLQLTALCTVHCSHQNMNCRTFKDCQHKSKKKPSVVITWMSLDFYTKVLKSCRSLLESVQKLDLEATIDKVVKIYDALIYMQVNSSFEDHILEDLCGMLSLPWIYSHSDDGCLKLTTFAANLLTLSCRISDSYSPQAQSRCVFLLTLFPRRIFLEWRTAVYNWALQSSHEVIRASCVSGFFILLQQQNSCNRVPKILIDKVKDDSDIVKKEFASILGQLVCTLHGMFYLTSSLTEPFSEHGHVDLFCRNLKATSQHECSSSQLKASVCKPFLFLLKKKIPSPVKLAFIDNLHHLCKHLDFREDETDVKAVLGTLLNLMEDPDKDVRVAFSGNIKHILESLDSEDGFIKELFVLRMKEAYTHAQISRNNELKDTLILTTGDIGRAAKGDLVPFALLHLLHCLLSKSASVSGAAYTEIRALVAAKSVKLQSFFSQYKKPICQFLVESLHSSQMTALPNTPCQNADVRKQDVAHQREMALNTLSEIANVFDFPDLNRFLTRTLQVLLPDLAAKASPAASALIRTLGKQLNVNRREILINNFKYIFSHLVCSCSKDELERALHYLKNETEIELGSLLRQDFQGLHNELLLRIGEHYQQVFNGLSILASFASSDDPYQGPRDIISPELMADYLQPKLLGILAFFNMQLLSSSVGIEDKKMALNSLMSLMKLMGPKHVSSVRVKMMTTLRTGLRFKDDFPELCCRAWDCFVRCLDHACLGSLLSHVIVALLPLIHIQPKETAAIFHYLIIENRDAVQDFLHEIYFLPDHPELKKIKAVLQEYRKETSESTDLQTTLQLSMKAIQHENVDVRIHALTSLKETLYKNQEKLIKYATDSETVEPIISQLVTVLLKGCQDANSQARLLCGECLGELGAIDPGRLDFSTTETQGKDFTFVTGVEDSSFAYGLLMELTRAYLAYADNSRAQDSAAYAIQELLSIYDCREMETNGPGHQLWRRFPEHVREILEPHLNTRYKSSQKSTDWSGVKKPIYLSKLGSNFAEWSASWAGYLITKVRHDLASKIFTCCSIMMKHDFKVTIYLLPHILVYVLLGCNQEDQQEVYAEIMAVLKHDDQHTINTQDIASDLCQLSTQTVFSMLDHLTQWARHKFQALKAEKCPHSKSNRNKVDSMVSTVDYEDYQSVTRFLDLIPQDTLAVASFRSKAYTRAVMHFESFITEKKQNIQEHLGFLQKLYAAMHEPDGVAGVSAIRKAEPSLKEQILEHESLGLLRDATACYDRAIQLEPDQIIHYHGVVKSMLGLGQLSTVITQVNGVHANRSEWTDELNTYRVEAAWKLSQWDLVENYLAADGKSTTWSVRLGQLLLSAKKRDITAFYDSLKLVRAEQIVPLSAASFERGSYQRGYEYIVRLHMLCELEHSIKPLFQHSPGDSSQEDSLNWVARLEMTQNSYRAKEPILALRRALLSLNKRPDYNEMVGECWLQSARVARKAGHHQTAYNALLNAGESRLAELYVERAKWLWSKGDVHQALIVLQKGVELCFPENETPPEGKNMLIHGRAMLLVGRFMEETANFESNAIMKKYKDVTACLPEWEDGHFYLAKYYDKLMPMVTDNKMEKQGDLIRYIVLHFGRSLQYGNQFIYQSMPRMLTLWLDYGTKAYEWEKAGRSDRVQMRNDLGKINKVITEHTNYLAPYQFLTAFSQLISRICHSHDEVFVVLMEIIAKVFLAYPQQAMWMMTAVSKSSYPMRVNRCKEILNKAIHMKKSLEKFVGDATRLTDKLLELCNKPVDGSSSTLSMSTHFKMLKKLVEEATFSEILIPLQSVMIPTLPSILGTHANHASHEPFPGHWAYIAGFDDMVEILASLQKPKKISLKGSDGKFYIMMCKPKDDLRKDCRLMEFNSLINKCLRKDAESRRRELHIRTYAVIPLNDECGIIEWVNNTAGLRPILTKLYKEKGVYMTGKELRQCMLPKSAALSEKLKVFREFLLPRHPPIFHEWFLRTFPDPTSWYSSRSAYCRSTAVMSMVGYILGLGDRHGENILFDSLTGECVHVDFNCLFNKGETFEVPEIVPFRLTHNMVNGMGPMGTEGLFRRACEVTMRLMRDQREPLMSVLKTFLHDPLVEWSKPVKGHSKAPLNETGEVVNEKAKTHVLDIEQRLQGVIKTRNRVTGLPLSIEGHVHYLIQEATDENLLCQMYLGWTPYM
# full-length human ATR protein, sequence (Q8WXE1 other isoform, or with tags, fused parts or gaps partner): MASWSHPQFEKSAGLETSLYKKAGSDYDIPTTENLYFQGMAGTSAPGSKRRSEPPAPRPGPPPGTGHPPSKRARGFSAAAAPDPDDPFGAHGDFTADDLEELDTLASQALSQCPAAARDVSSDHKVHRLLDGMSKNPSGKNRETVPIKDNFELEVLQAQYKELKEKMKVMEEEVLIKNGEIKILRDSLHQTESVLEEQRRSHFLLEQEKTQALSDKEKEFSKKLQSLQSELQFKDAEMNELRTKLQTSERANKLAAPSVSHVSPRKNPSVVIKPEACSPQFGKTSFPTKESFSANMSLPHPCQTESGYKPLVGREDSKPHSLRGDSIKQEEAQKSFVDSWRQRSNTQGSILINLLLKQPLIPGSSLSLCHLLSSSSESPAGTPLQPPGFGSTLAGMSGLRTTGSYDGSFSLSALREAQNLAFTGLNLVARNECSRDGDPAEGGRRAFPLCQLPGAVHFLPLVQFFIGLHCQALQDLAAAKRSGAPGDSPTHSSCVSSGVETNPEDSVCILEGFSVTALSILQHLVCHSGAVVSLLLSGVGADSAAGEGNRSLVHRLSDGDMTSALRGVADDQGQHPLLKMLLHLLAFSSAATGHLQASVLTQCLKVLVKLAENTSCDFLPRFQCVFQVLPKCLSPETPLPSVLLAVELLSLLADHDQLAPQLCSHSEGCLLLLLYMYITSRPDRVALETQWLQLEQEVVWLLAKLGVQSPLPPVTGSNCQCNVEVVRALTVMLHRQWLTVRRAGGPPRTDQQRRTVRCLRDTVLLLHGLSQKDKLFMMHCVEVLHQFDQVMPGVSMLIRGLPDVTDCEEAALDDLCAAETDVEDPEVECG
row,SMILES,IC50 [nM]
1,"COP(=O)(O)c1ccc(-c2cc(N3CCOCC3)nc3c(-c4ccn[nH]4)nccc23)cc1 [Example 181, Methyl hydrogen {4-[2-(morpholin-4-yl)-8-(1H-pyrazol-5-yl)-1,7-naphthyridin-4-yl]phenyl}phosphonate]",539

# Same assay, conditions: tracer A, TR-FRET; read-out: ATR binding (tracer A) IC50
row,SMILES,IC50 [nM]
1,"C[C@@H]1COCCN1c1cc(-c2ccc(F)cn2)c2ccnc(-c3ccn[nH]3)c2n1 [Example 163, 4-(5-fluoropyridin-2-yl)-2-[(3R)-3-methylmorpholin-4-yl]-8-(1H-pyrazol-5-yl)-1,7-naphthyridine]",107
2,"Cc1cccc(-c2cc(N3CCOC[C@H]3C)nc3c(-c4ccn[nH]4)nccc23)n1 [Example 164, 2-[(3R)-3-methylmorpholin-4-yl]-4-(6-methylpyridin-2-yl)-8-(1H-pyrazol-5-yl)-1,7-naphthyridine]",161
3,"Cc1cccnc1-c1cc(N2CCOC[C@H]2C)nc2c(-c3ccn[nH]3)nccc12 [Example 165, 2-[(3R)-3-methylmorpholin-4-yl]-4-(3-methylpyridin-2-yl)-8-(1H-pyrazol-5-yl)-1,7-naphthyridine]",224
4,"CC(=O)Nc1ccccc1-c1cc(N2CCOC[C@H]2C)nc2c(-c3ccn[nH]3)nccc12 [Example 166, N-(2-{2-[(3R)-3-methylmorpholin-4-yl]-8-(1H-pyrazol-5-yl)-1,7-naphthyridin-4-yl}phenyl)acetamide]",365
5,"C[C@@H]1COCCN1c1cc(-c2cccnc2O)c2ccnc(-c3ccn[nH]3)c2n1 [Example 167, 3-{2-[(3R)-3-methylmorpholin-4-yl]-8-(1H-pyrazol-5-yl)-1,7-naphthyridin-4-yl}pyridin-2-ol]",408
6,"C[C@@H]1COCCN1c1cc(-c2cccc(C(C)(C)O)c2)c2ccnc(-c3ccn[nH]3)c2n1 [Example 168, 2-(3-{2-[(3R)-3-methylmorpholin-4-yl]-8-(1H-pyrazol-5-yl)-1,7-naphthyridin-4-yl}phenyl)propan-2-ol]",530
7,"c1cc(-c2nccc3c(N4CCn5ccnc5C4)cc(N4CCOCC4)nc23)[nH]n1 [Example 169, 4-(5,6-dihydroimidazo[1,2-a]pyrazin-7(8H)-yl)-2-(morpholin-4-yl)-8-(1H-pyrazol-5-yl)-1,7-naphthyridine]",115
8,"C[C@H]1CN(c2cc(N3CCOCC3)nc3c(-c4ccn[nH]4)nccc23)CCO1 [Example 170, 4-[(2S)-2-methylmorpholin-4-yl]-2-(morpholin-4-yl)-8-(1H-pyrazol-5-yl)-1,7-naphthyridine]",168
9,"C[C@@H]1COCCN1c1cc(OC(F)F)c2ccnc(-c3ccn[nH]3)c2n1 [Example 172, 4-(difluoromethoxy)-2-[(3R)-3-methylmorpholin-4-yl]-8-(1H-pyrazol-5-yl)-1,7-naphthyridine]",82.8
10,"CC(C)(O)c1cc(N2CCOCC2)nc2c(-c3ccn[nH]3)nccc12 [Example 173, 2-[2-(morpholin-4-yl)-8-(1H-pyrazol-5-yl)-1,7-naphthyridin-4-yl]propan-2-ol]",205
11,"c1cc(-c2nccc3c(N4C5CCC4COC5)cc(N4CCOCC4)nc23)[nH]n1 [Example 174, 2-(morpholin-4-yl)-4-(3-oxa-8-azabicyclo[3.2.1]oct-8-yl)-8-(1H-pyrazol-5-yl)-1,7-naphthyridine]",213
12,"C[C@@H]1COCCN1c1cc(N2CCCC2)c2ccnc(-c3ccn[nH]3)c2n1 [Example 175, 2-[(3R)-3-methylmorpholin-4-yl]-8-(1H-pyrazol-5-yl)-4-(pyrrolidin-1-yl)-1,7-naphthyridine]",221
13,"O=C1CN(c2cc(N3CCOCC3)nc3c(-c4ccn[nH]4)nccc23)CCN1 [Example 176, 4-[2-(morpholin-4-yl)-8-(1H-pyrazol-5-yl)-1,7-naphthyridin-4-yl]piperazin-2-one]",223
14,"CP(C)(=O)c1cc(N2CCOCC2)nc2c(-c3ccn[nH]3)nccc12 [Example 177, 4-(dimethylphosphoryl)-2-(morpholin-4-yl)-8-(1H-pyrazol-5-yl)-1,7-naphthyridine]",250
15,"C[C@@H]1CN(c2cc(N3CCOCC3)nc3c(-c4ccn[nH]4)nccc23)C[C@H](C)N1 [Example 179, 4-[(cis)-3,5-dimethylpiperazin-1-yl]-2-(morpholin-4-yl)-8-(1H-pyrazol-5-yl)-1,7-naphthyridine]",454
16,"OC1(C(F)(F)F)CN(c2cc(N3CCOCC3)nc3c(-c4ccn[nH]4)nccc23)C1 [Example 180, 1-[2-(morpholin-4-yl)-8-(1H-pyrazol-5-yl)-1,7-naphthyridin-4-yl]-3-(trifluoromethyl)azetidin-3-ol]",487
17,"CN1CCN(c2cc(N3CCOCC3)nc3c(-c4ccn[nH]4)nccc23)CC1 [Example 182, 4-(4-methylpiperazin-1-yl)-2-(morpholin-4-yl)-8-(1H-pyrazol-5-yl)-1,7-naphthyridine]",632
18,"c1cc(-c2nccc3c(N4C[C@H]5COC[C@H]5C4)cc(N4CCOCC4)nc23)[nH]n1 [Example 183, 2-(morpholin-4-yl)-8-(1H-pyrazol-5-yl)-4-[(3aR,6aS)-tetrahydro-1H-furo[3,4-c]pyrrol-5(3H)-yl]-1,7-naphthyridine]",649

row,SMILES,IC50 [nM]
1,"COC1(C)CN(c2cc(N3CCOCC3)nc3c(-c4ccn[nH]4)nccc23)C1 [Example 184, 4-(3-methoxy-3-methylazetidin-1-yl)-2-(morpholin-4-yl)-8-(1H-pyrazol-5-yl)-1,7-naphthyridine]",763
2,"CSCc1cc(N2CCOC[C@H]2C)nc2c(-c3ccn[nH]3)nccc12 [Example 186, 2-[(3R)-3-methylmorpholin-4-yl]-4-[(methylsulfanyl)methyl]-8-(1H-pyrazol-5-yl)-1,7-naphthyridine]",67.4
3,"Cc1cc(-c2cc(N3CCOCC3)nc3c(-c4ccn[nH]4)nccc23)ccn1 [Example 188, 4-(2-methylpyridin-4-yl)-2-(morpholin-4-yl)-8-(1H-pyrazol-5-yl)-1,7-naphthyridine]",251
4,"C[C@@H]1COCCN1c1cc(C2(O)CCCCC2)c2ccnc(-c3ccn[nH]3)c2n1 [Example 189, 1-{2-[(3R)-3-methylmorpholin-4-yl]-8-(1H-pyrazol-5-yl)-1,7-naphthyridin-4-yl}cyclohexanol]",21.4
5,"CS(=O)(=NC#N)c1ccc(-c2cc(N3CCOCC3)nc3c(-c4ccn[nH]4)nccc23)cc1 (stereo not shown) [Example 191, (methyl{4-[2-(morpholin-4-yl)-8-(1H-pyrazol-5-yl)-1,7-naphthyridin-4-yl]phenyl}oxido-λ^6-sulfanylidene)cyanamide]",44.1
6,"CCNC(=O)N=S(C)(=O)c1ccc(-c2cc(N3CCOCC3)nc3c(-c4ccn[nH]4)nccc23)cc1 (stereo not shown) [Example 192, 1-ethyl-3-(methyl{4-[2-(morpholin-4-yl)-8-(1H-pyrazol-5-yl)-1,7-naphthyridin-4-yl]phenyl}oxido-λ^6-sulfanylidene)urea]",115
7,"C[C@@H]1COCCN1c1cc(OCCCN)c2ccnc(-c3ccn[nH]3)c2n1 [Example 193, 3-({2-[(3R)-3-methylmorpholin-4-yl]-8-(1H-pyrazol-5-yl)-1,7-naphthyridin-4-yl}oxy)propan-1-amine]",245
8,"C[C@@H]1COCCN1c1cc(-c2[nH]nnc2C2CC2)c2ccnc(-c3ccn[nH]3)c2n1 [Example 194, 4-(4-cyclopropyl-1H-1,2,3-triazol-5-yl)-2-[(3R)-3-methylmorpholin-4-yl]-8-(1H-pyrazol-5-yl)-1,7-naphthyridine]",37.6
9,"CC[S+]([O-])c1cc(N2CCOCC2)nc2c(-c3ccn[nH]3)nccc12 (stereo not shown) [Example 195, 4-ethylsulfinyl-2-(morpholin-4-yl)-8-(1H-pyrazol-5-yl)-1,7-naphthyridine]",71.4
10,"CC(C)[S+]([O-])c1cc(N2CCOCC2)nc2c(-c3ccn[nH]3)nccc12 (stereo not shown) [Example 196, 2-(morpholin-4-yl)-4-[propan-2-ylsulfinyl]-8-(1H-pyrazol-5-yl)-1,7-naphthyridine]",72.6
11,"C[C@@H]1COCCN1c1cc(OCCCS(C)(=O)=O)c2ccnc(-c3ccn[nH]3)c2n1 [Example 197, 2-[(3R)-3-methylmorpholin-4-yl]-4-[3-(methylsulfonyl)propoxy]-8-(1H-pyrazol-5-yl)-1,7-naphthyridine]",72.4
12,"O=S(=O)(c1ccccc1)c1cc(N2CCOCC2)nc2c(-c3ccn[nH]3)nccc12 [Example 198, 2-(morpholin-4-yl)-4-(phenylsulfonyl)-8-(1H-pyrazol-5-yl)-1,7-naphthyridine]",293
13,"CC(C)S(=O)(=O)c1cc(N2CCOCC2)nc2c(-c3ccn[nH]3)nccc12 [Example 199, 2-(morpholin-4-yl)-4-(propan-2-ylsulfonyl)-8-(1H-pyrazol-5-yl)-1,7-naphthyridine]",138
14,"CCS(=O)(=O)c1cc(N2CCOCC2)nc2c(-c3ccn[nH]3)nccc12 [Example 200, 4-(ethylsulfonyl)-2-(morpholin-4-yl)-8-(1H-pyrazol-5-yl)-1,7-naphthyridine]",86.9
15,"[O-][S+](c1ccccc1)c1cc(N2CCOCC2)nc2c(-c3ccn[nH]3)nccc12 (stereo not shown) [Example 201, 2-(morpholin-4-yl)-4-(phenylsulfinyl)-8-(1H-pyrazol-5-yl)-1,7-naphthyridine]",40
16,"C[S+]([O-])c1cc(N2CCOCC2)nc2c(-c3ccn[nH]3)nccc12 (stereo not shown) [Example 202, 4-(methylsulfinyl)-2-(morpholin-4-yl)-8-(1H-pyrazol-5-yl)-1,7-naphthyridine]",78.3
17,"C[C@@H]1COCCN1c1cc(C2CC[S+]([O-])CC2)c2ccnc(-c3ccn[nH]3)c2n1 (stereo partly drawn) [Example 203, 2-[(3R)-3-methylmorpholin-4-yl]-4-[1-oxidotetrahydro-2H-thiopyran-4-yl]-8-(1H-pyrazol-5-yl)-1,7-naphthyridine]",11.3
18,"C[C@@H]1COCCN1c1cc(C2CCS(=O)(=O)CC2)c2ccnc(-c3ccn[nH]3)c2n1 [Example 204, 4-(1,1-dioxidotetrahydro-2H-thiopyran-4-yl)-2-[(3R)-3-methylmorpholin-4-yl]-8-(1H-pyrazol-5-yl)-1,7-naphthyridine]",6.76
